This note sets out measurements from patent publication US6197769A, “Indazole amide compounds as serotoninergic agents” (Aziende Chimiche Riunite Angelini Francesco A.C.R.A.F. …, priority 1997, dated 2001).

Molecules are shown by their SMILES. Where a name gives a salt, the structure may show the parent alone.

In this experiment the target is T1, 5-HT4 Receptor (Rattus norvegicus, UniProt Q62758).
T1 construct: serotonin-induced relaxation of rat oesophageal tunica; from tissue; host or cells: rat oesophageal tunica
T1 sequence (Q62758 whole entry): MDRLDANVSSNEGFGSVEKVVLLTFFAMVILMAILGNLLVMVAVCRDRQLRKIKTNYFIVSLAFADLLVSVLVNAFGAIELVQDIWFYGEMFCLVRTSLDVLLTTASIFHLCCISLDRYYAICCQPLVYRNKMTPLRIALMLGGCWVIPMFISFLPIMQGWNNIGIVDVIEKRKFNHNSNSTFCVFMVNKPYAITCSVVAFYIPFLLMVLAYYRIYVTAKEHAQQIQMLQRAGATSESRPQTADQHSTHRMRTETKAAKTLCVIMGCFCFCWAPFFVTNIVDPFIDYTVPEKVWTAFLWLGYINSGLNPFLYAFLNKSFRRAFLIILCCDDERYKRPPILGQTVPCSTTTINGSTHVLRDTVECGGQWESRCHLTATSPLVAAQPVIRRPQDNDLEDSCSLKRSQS
Put plainly: Antagonistic action on 5-HT4 receptor: inhibition of serotonin-induced relaxation of rat oesophageal tunica pre-contracted with carbachol. Conditions: antagonism, read-out: pA2 (converted). The protocol: Antagonistic Action on 5-HT4 Receptor
The antagonistic action of the compounds of the formula (I) was evaluated by testing the influence of the compound under evaluation on serotonin-induced relaxation of rat oesophageal tunica pre-contracted with carbachol according to the method described by J. D. Gale et al. in "Br. J. Pharmacol.", 111, 332-338, (1994).

With `CC(C)n1nc(C(=O)NCC2CCN(CCc3ccccc3)CC2)c2ccccc21` [AFR 306, N3-{[1-(2-phenylethyl)-4-piperidinyl]methyl}-1-isopropyl-1H-3-indazolecarboxamide hydrochloride], the Kb is 0.437 nM.
The value for `CC(C)n1nc(C(=O)NCC2CCN(CCCCc3ccccc3)CC2)c2ccccc21` [AFR 603, N3-{[1-(4-phenylbutyl)-4-piperidinyl]methyl}-1-isopropyl-1H-3-indazolecarboxamide oxalate] was 0.759 nM; that for `CC(C)n1nc(C(=O)NCC2CCN(CCC3CCCCC3)CC2)c2ccccc21` [AFR 604, N3-{[1-(2-cyclohexylethyl)-4-piperidinyl]methyl}-1-isopropyl-1H-3-indazolecarboxamide hydrochloride] was 6.46 nM.
The value for `CC(C)n1nc(C(=O)NCC2CCN(CCc3ccccn3)CC2)c2ccccc21` [AFR 605, N3-({1-[2-(2-pyridinyl)ethyl]4-piperidinyl}methyl)-1-isopropyl-1H-3-indazolecarboxamide hydrochloride] was 0.0158 nM.
